# Laboratory results taken from article PMC6270290, “Synthesis of Bistetrahydroquinolines as Potential Anticholinesterasic Agents by Double Diels-Alder Reactions” (Molecules, 2013).
# Target: acetylcholinesterase (AChE) (Electrophorus electricus, UniProt O42275)
# Test: Ellman colorimetric assay, acetylthiocholine hydrolysis
# Assay type: biochemical
# acetylcholinesterase (AChE), sequence (O42275 24-633): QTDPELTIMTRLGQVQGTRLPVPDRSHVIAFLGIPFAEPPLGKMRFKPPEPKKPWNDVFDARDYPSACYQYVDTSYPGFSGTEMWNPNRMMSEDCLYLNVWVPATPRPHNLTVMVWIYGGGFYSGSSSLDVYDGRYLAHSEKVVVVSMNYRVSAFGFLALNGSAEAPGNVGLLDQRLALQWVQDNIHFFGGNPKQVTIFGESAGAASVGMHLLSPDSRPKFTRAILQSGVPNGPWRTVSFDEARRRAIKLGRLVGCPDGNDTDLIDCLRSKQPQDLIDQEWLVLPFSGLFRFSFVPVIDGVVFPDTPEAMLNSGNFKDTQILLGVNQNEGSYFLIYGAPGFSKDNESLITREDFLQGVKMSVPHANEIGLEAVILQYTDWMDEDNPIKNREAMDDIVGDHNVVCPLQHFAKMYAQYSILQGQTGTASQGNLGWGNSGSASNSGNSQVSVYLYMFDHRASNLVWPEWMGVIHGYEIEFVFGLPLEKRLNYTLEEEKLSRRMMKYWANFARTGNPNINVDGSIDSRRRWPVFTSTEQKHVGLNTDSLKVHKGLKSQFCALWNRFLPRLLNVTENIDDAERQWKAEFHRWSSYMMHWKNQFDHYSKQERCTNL
smiles,measurement,value
"COc1ccc2c(c1)C(N1CCCC1=O)CC(c1cccc(C3CC(N4CCCC4=O)c4cc(OC)ccc4N3)c1)N2 (stereo not shown) [5c, 1,3-bis(6'-Methoxy-4'-(2-oxopyrrolidinyl-1)-1',2',3',4'-tetrahydroquinolin-2-yl)benzene]",IC50,122 µM
